What was measured:
5-lipoxygenase = target: T1, 5-lipoxygenase (Rattus norvegicus, UniProt P12527); assay: Inhibition of 5-lipoxygenase, in vitro (5-HETE synthesis by RBL-1 homogenate 100,000×g supernatant); type: biochemical; conditions: RBL-1 homogenate supernatant, 5-HETE from [1-14C]-arachidonic acid with Ca++; read-out: Rat Basophilic Leukemia Cell- Inhibition IC50
T1 construct: supernatant fraction of Rat Basophilic Leukemia Cell Homogenate (RBL-1) serves as a 5-lipoxygenase enzyme source; endogenous in cells; host or cells: RBL-1 (rat basophilic leukemia cells), 100,000×g supernatant of homogenate
T1 sequence (P12527 1-673): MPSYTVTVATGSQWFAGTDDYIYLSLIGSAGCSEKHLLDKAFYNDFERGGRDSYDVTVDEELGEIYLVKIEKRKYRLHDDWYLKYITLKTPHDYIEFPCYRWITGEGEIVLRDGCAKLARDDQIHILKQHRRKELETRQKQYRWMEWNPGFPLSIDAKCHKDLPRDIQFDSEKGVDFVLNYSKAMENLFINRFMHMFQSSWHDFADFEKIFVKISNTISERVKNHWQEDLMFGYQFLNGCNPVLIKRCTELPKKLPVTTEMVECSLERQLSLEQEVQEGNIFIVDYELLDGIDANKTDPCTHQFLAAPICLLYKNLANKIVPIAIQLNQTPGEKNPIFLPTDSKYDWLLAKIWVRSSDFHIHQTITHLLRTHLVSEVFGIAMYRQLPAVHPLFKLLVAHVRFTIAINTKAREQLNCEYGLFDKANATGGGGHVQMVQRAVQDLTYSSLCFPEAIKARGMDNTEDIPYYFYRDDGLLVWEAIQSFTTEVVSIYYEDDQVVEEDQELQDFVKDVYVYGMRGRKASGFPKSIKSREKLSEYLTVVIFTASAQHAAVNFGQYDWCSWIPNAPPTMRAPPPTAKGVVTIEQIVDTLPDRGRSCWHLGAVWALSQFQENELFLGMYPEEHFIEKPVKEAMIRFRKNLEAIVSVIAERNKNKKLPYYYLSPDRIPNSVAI
Method: (1) Inhibition of 5-lipoxygenase, in vitro: anti-inflammatory, anti-allergyactivities.
The 100,000×g supernatant fraction of Rat Basophilic Leukemia Cell Homogenate (RBL-1) serves as a 5-lipoxygenase enzyme source. The enzyme is incubated with [1-^14 C]-arachidonic acid and Ca++ in the presence and absence of test compound. The product of 5-lipoxygenase, 5-hydroxyeicosatetraenoic acid (5-HETE), is separated by thin-layer chromatography and measured by radioactivity. A compound inhibiting 5-HETE synthesis by 30% or more is considered active at that concentration.

[1] = test system: bronchoconstricting effects; conditions: versus histamine; cited from earlier work
[2] = test system: SRS synthesis by Rat Basophilic Leukemia Cell (RBL-1) cells; assay: Inhibition of slow reacting substance (SRS) biosynthesis in RBL-1 cells; type: cell-based; conditions: ionophore A23187, guinea pig ileum bioassay
Method: (2) Inhibition of slow reacting substance (SRS) biosynthesis in cells.
SRS synthesis by Rat Basophilic Leukemia Cell (RBL-1) cells is induced by incubation of cells with ionophore A23187 alone and in combination with the test compound. The SRS released into the culture media is measured. The percent inhibition of SRS production is estimated by determining the doses of treated and control media needed in the tissue bath to produce equivalent contractions of segments of isolated guinea pig ileum.
Initial screening doses of test compounds are 1×10^-4 M and 1×10^-5 M.

SMILES	IC50 (5-lipoxygenase) [µM]	potency relative to histamine in causing long lasting bronchoconstricting effects [1]	inhibition at 5 µM [2] [%]
O=C(O)CCc1ccc(-c2ccc(Cl)cc2)n1-c1cc(Cl)ccc1O [Example 5, 1-(5-chloro-2-hydroxyphenyl)-5-(4-chlorophenyl)-1H-pyrrole-2-propanoic acid]	10	–	–
CCCCC/C=C\C\C=C/C=C/C=C/[C@@H](SC[C@H](NC(=O)CC[C@H](N)C(=O)O)C(=O)NCC(=O)O)[C@@H](O)CCCC(=O)O [LTC4]	–	at least 100 times	–
COc1ccc(-c2ccc(CCC(=O)O)n2-c2cc(Cl)ccc2O)cc1 [Example 7, 1-(5-chloro-2-hydroxyphenyl)-5-(4-methoxyphenyl)-1H-pyrrole-2-propanoic acid]	35	–	–

The remaining compounds from weak to strong by IC50 (5-lipoxygenase), led by results:

IC50 (5-lipoxygenase) [µM]	SMILES	potency relative to histamine in causing long lasting bronchoconstricting effects [1]	inhibition at 5 µM [2] [%]
2.4	NC(=O)CCc1ccc(-c2ccc(F)cc2)n1-c1cc(Cl)ccc1O [Example 4, 1-(5-chloro-2-hydroxyphenyl)-5-(4-fluorophenyl)-1H-pyrrole-2-propanamide]	–	–
0.83	O=C(O)CCc1ccc(-c2ccc(F)cc2)n1-c1cc(Cl)ccc1O [Example 1, 1-(5-chloro-2-hydroxyphenyl)-5-(4-fluorophenyl)-1H-pyrrole-2-propanoic acid]	–	82

From US4694018A, “Substituted 1,5-diphenyl-2-pyrrolepropionic acids and derivatives” (G. D. Serale & Co., priority 1985, dated 1987)
